Results: article PMC10004777 (Molecules, 2023)

Experiments:
[1] = target: T1, MDM2 protein (Homo sapiens, UniProt Q00987); design: method as in PMID 22380771; settings: virtual screening prediction; read-out: Ki (predicted affinity with MDM2 protein); cited from earlier work
T1 construct: purchased Protintech (so in the source)

[2] = test system: osteosarcoma cell line SJSA-1; test: Cell viability (MTT) assay, SJSA-1; type: cell-based; settings: for anti-proliferation activity on SJSA-1 (in words): SJSA-1, 72 h
Method: (§1) To investigate the selectivity of these derivatives towards different tumor cell lines, we also selected HepG2 and osteosarcoma cell line SJSA-1 cells to evaluate the anti-proliferation activity of the derivatives. […] Except for compounds A2 and A11, the effects of other compounds on SJSA-1 were not strong.
(§2) The cell lines present in this study were obtained from Procell Life Science & Technology Co. Ltd. MCF-7, HepG2 and SJSA-1 cells were cultured in DMEM medium (DMEM, Gibco) supplemented with 10% fetal bovine serum (FBS, Gibco), 1% penicillin-streptomycin (Hyclone) at 37℃ in a humid environment with 5% CO2. HK-2 cells were cultured in DMEM/F12 (1:1) medium and placed in incubators in the same environment.
(§3) Cell viability was determined by MTT assay. MCF-7, HepG2, SJSA-1 and HK-2 cells (6 × 10^3 cells /well) were seeded in 96-well plates with serum-free medium for 24 h. […] After 48 or 72 h, 10 μL MTT (5 mg/mL, Beyotime) was added and incubated at 37 °C for 4 h. Then 100 μL of lysate was added. After complete dissolution of the crystal, the absorbance was measured at 540 nm and expressed as the average percentage of absorbance between treated and control cells. The value for control cells was set at 100%. Cell survival rate was calculated as the ratio of the absorbance of the cells and negative control after minus the blank absorbance respectively.

[3] = test system: HepG2 cells; test: Cell viability (MTT) assay, HepG2; type: cell-based; settings: for anti-proliferation activity on HepG2 (in words): HepG2, 48 h
Method: as §1, §2, §3

[4] = test system: HK-2 cells; test: Cell viability (MTT) assay, HK-2 normal cells (cytotoxicity); type: cell-based
Method: as §2, §3

[5] = test system: MCF-7 breast cancer cells; test: Cell viability (MTT) assay, MCF-7; type: cell-based; settings: for anti-proliferation activity on MCF-7 compared with GAA: MCF-7, 48 h
Method: MCF-7 is a commonly used tumor cell line.
as §2, §3

[6] = test system: MDM2, p53 protein and Bcl-2/Bax in MCF-7 cells; test: Western blot protein expression, MCF-7; type: cell-based; settings: MCF-7, 24 h
Excerpt: (§4) In the introduction section, we introduced that the concept that the MDM2-p53 pathway can induce cell apoptosis by up-regulating the expression of p53 protein to inhibit the proliferation of tumor cells, and by blocking the interaction of MDM2 and p53, the activation of p53 results in transcription of MDM2 mRNA, leading to robust MDM2 protein accumulation. In order to verify the effect of A2 on this pathway, we examined the effect of A2 on the protein level of MDM2, p53 protein and Bcl-2/Bax related to apoptosis, as shown in Figure 5. […] The level of Bcl-2/Bax decreased which was consistent with the apoptosis of MCF-7 cells induced by A2. We also investigated the effect of A2 on the SJSA-1 cell line which overexpresses MDM2.
(§5) For Western blot analysis, MCF-7 and SJSA-1 cells were treated with different concentrations of A2 for 24 h. The total cell protein was extracted, and proteins were isolated using 10% SDS-PAGE gel system. The proteins on the gel were transferred to PVDF membrane, blocked in 5% BSA at room temperature for 2 h, incubated in primary antibody dilution at 4 °C overnight, and washed with TBST for 3 times, 10 min each. Then, they were transferred to dilute release solution of secondary antibody and incubated at room temperature for 2 h. ECL chemiluminescence development solution (Beyotime, BeyoECL star) was added uniformly and detected on gel imaging system (Clinx ChemiScope, China). Antibodies for blotting were MDM2 (abcam, ab16895), P53 (Proteintech, 10442-1-AP), Bcl-2 (CST, 15071S), Bax (CST, 2772T) and β-actin (abcam, ab8226).

[7] = target: T1, MDM2 protein; test: Surface plasmon resonance (SPR) binding assay
Method: In order to speculate whether A2 effects the p53-MDM2 pathway by binding with MDM2 to inhibit the interaction between MDM2 and p53, we carried out in silico and in vitro binding experiments. […] We used the S-value to evaluate the binding degree of the compound and MDM2 in the molecular docking experiments. The higher the absolute value of this number, the stronger the binding force.
MDM2 protein (5 mg/mL, Protintech) was immobilized on a PCH sensor chip (Octet) and preactivated with EDC/NHS mixture for 420 s at a flow rate of 10 μL/min. A2 was diluted to 100, 50, 25, 12.5, 6.25, 3.13, 0 μM with PBST buffer containing 1% DMSO. The binding time was 600 s, and the flow rate was 20 μL/min. The dissociation time was 180 s, and the affinity constant KD value was obtained by computer fitting and steady-state analysis.

[8] = test system: SJSA-1 cells; test: Flow cytometry apoptosis, Annexin V-FITC/PI staining; type: cell-based; settings: 24 h
Method: Cells were stained with Annexin V-FITC and propidium iodide.
To determine the apoptosis rate, an Annexin V-FITC/PI double staining apoptosis assay kit (Beyotime) was used to detect apoptotic cells by flow cytometry (BD FACSALOBUR), according to the manufacturer’s instructions. Briefly, SJSA-1 cells were treated with 0.1% DMSO, 12.5, 25, and 50 μM of A2 for 24 h. After harvesting, the cells were incubated with 5 μL Annexin V-FITC for 15 min and 10 μL PI for 5 min at 4 °C under dark conditions. Flow cytometry was then performed to analyze the apoptosis rate. Data were analyzed by using BD FACSDiva 8.0.1.

[9] = test system: MDM2 and p53 protein in SJSA-1 cell line; test: Western blot protein expression, SJSA-1; type: cell-based; settings: SJSA-1, 24 h, 12.5, 25 and 50 µM
Excerpt: as §4
as §5, with “Then, they were transferred to dilute release solution of secondary antibody and incubated at room temperature for 2 h.” left out, “Antibodies for blotting were MDM2 (abcam, ab16895), P53 (Proteintech, 10442-1-AP), Bcl-2 (CST, 15071S), Bax (CST, 2772T) and β-actin (abcam, ab8226).” left out

T1 sequence (Q00987 whole entry): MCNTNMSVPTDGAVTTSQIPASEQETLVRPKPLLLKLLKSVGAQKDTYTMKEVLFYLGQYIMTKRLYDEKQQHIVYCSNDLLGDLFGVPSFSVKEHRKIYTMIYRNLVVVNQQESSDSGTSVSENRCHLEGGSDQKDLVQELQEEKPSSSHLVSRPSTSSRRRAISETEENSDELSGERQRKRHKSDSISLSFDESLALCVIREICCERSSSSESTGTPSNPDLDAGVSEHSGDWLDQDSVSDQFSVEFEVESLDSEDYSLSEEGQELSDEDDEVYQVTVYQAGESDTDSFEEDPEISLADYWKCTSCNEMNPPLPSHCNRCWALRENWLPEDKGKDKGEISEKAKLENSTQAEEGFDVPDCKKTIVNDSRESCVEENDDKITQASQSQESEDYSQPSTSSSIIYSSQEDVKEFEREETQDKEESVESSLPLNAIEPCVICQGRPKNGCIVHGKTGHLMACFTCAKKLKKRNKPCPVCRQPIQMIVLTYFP

Row | SMILES | Viability of Cells (% of Control) ([2]; 50 µM) | Viability of Cells (% of Control) ([2]; 100 µM) | Viability of Cells (% of Control) ([3]; 25 µM) | Viability of Cells (% of Control) ([3]; 50 µM) | Viability of Cells (% of Control) ([4]; 50 µM) | Viability of Cells (% of Control) ([4]; 100 µM) | Viability of Cells (% of Control) ([5]; 25 µM) | Viability of Cells (% of Control) ([5]; 50 µM) | Viability of Cells (% of Control) ([5]; 100 µM) | melting point [°C] | anti-proliferation activity on HepG2 (in words) [3] | anti-proliferation activity on MCF-7 compared with GAA [5] | anti-proliferation activity on SJSA-1 (in words) [2] | further results
1 | CC(=O)O[C@@H]1C(=O)C2=C(C(=O)C[C@H]3C(C)(C)C(=O)CC[C@]23C)[C@]2(C)C(=O)C[C@H]([C@H](C)CC(=O)CC(C)C(=O)O)[C@@]12C (stereo partly drawn) [ganoderic acid F] | – | – | – | – | – | – | – | – | – | – | – | – | – | Ki [1]: 212 nM
2 | C[C@H](CC(=O)C[C@@H](C)[C@H]1C[C@H](O)[C@@]2(C)C3=C(C(=O)C[C@]12C)[C@@]1(C)CCC(=O)C(C)(C)[C@@H]1C[C@@H]3O)C(=O)NCCc1ccc(Cl)cc1 [Compound A12, (4-Chlorophenethyl)-(7β,15α,25R)-7,15-Dihydroxy-3,11,23-Trioxolanost-8-en-26-oic Amide] | 73.5 ± 1.2 % of Control | 65.5 ± 1.5 % of Control | 29.1 ± 0.4 % of Control | 25.6 ± 0.8 % of Control | 124.1 ± 2.6 % of Control | 111.2 ± 6.5 % of Control | 119.0 ± 3.4 % of Control | 110.5 ± 6.0 % of Control | 102.9 ± 3.8 % of Control | 195.4 to 196.1 | – | – | – | inhibition at 50 µM ([3]; Homo sapiens, HepG2, 50 µM (printed: below 50 µM), 48 h, read-out: inhibition rate of HepG2): 74.4%
3 | C[C@H](CC(=O)C[C@@H](C)[C@H]1C[C@H](O)[C@@]2(C)C3=C(C(=O)C[C@]12C)[C@@]1(C)CCC(=O)C(C)(C)[C@@H]1C[C@@H]3O)C(=O)NCc1ccc(Cl)cc1 [Compound A7, (4-Chlorobenzyl)-(7β,15α,25R)-7,15-Dihydroxy-3,11,23-Trioxolanost-8-en-26-oic Amide] | 81.6 ± 2.8 % of Control | 77.1 ± 4.6 % of Control | 73.8 ± 1.2 % of Control | 53.4 ± 1.0 % of Control | 86.2 ± 3.7 % of Control | 81.3 ± 3.3 % of Control | 73.5 ± 4.0 % of Control | – | 75.1 ± 13.2 % of Control | 188.6 to 189.4 | potent anti-proliferation activity | significant anti-proliferation activities | – | toxicity to HK2 cells (in words) [4]: some toxicity
4 | C[C@H](CC(=O)C[C@@H](C)[C@H]1C[C@H](O)[C@@]2(C)C3=C(C(=O)C[C@]12C)[C@@]1(C)CCC(=O)C(C)(C)[C@@H]1C[C@@H]3O)C(=O)NCc1cc(Cl)cc(Cl)c1 [Compound A8, (3,5-Dichlorobenzyl)-(7β,15α,25R)-7,15-Dihydroxy-3,11,23-Trioxolanost-8-en-26-oic Amide] | 92.4 ± 1.4 % of Control | 80.4 ± 4.7 % of Control | 54.2 ± 2.0 % of Control | 48.1 ± 1.5 % of Control | 107.8 ± 14.3 % of Control | 91.0 ± 2.4 % of Control | 63.3 ± 8.3 % of Control | – | 39.4 ± 5.8 % of Control | 182.6 to 183.8 | potent anti-proliferation activity | significant anti-proliferation activities | – | –
5 | CCCCCCNC(=O)[C@H](C)CC(=O)C[C@@H](C)[C@H]1C[C@H](O)[C@@]2(C)C3=C(C(=O)C[C@]12C)[C@@]1(C)CCC(=O)C(C)(C)[C@@H]1C[C@@H]3O [Compound A2, (n-hexyl)-(7β,15α,25R)-7,15-Dihydroxy-3,11,23-Trioxolanost-8-en-26-oic Amide] | – | – | – | – | – | – | – | – | – | 129.9 to 131.3 | potent anti-proliferation activity | significant anti-proliferation activities | potent inhibition | level of Bcl-2/Bax [6]: decreased; MDM2 protein level ([6]; 50 µM): increasing trend; p53 protein level ([6]; 50 µM): increasing trend; Kd ([7]; immobilized MDM2, steady-state analysis): 1680 nM; Kd ([7]; printed in Figure 7): 1648 ± 7 nM; Viability of Cells (% of Control) ([2]; SJSA-1, 50 µM, 72 h, MTT): 51.4 ± 1.7 % of Control; Viability of Cells (% of Control) ([2]; SJSA-1, 100 µM, 72 h, MTT): 28.5 ± 3.4 % of Control; Viability of Cells (% of Control) ([3]; HepG2, 25 µM, 48 h, MTT): 78.8 ± 1.7 % of Control; Viability of Cells (% of Control) ([3]; HepG2, 50 µM, 48 h, MTT): 48.4 ± 2.1 % of Control; proportion of early phase apoptosis cells (Q3) ([8]; SJSA-1, 12.5 µM): 11.6%; proportion of early phase apoptosis cells (Q3) ([8]; SJSA-1, 25 µM): 12.3%; proportion of early phase apoptosis cells (Q3) ([8]; SJSA-1, 50 µM): 18.7%; Viability of Cells (% of Control) ([4]; HK-2 normal cells, 50 µM, 48 h, MTT): 97.1 ± 4.1 % of Control; Viability of Cells (% of Control) ([4]; HK-2 normal cells, 100 µM, 48 h, MTT): 90.9 ± 3.0 % of Control; Viability of Cells (% of Control) ([5]; MCF-7, 25 µM, 48 h, MTT): 66.76 ± 6.2 % of Control; Viability of Cells (% of Control) ([5]; MCF-7, 50 µM, 48 h, MTT): 59.4 ± 4.7 % of Control; Viability of Cells (% of Control) ([5]; MCF-7, 100 µM, 48 h, MTT): 50.37 ± 1.7 % of Control; expression of MDM2 [9]: increased in a dose-dependent manner; expression of p53 protein [9]: increased in a dose-dependent manner
6 | C[C@H](CC(=O)C[C@@H](C)[C@H]1C[C@H](O)[C@@]2(C)C3=C(C(=O)C[C@]12C)[C@@]1(C)CCC(=O)C(C)(C)[C@@H]1C[C@@H]3O)C(=O)NCCc1ccc(F)cc1 [Compound A11, (4-Fluorophenethyl)-(7β,15α,25R)-7,15-Dihydroxy-3,11,23-Trioxolanost-8-en-26-oic Amide] | 56.1 ± 8.7 % of Control | 41.9 ± 3.1 % of Control | 78.5 ± 3.0 % of Control | 69.1 ± 2.0 % of Control | 89.8 ± 9.6 % of Control | 86.9 ± 2.7 % of Control | 100.5 ± 2.5 % of Control | 101.8 ± 0.2 % of Control | 58.4 ± 5.5 % of Control | 188.1 to 189 | – | – | some selectivity for SJSA-1 | –
